The source of these data is patent US11685766B2, “14-3-3 targeting peptides for cancer treatment” (Creighton University, priority 2019, dated 2023).

Each structure is given as a SMILES string. pIC50: −log10 of the molar value. Values joined by “and” are separate entries in the source; they are usually repeats but may differ in a detail not shown here. Equal entries are not always repeated. Where two headings read alike, the source gives them in different places. Peptide text beside a SMILES is read from it.

The assay deals with SCC12B.2 cells. Format: cell-based, human. The method, then: Human skin cancer cell lines (SCC12B.2, SCC13, SRB12) were maintained in Dulbecco's modified Eagle's medium (DMEM) (Invitrogen, Carlsbad, Calif., USA) supplemented with 1% penicillin (10 000 U/ml)-streptomycin (10 000 μg/ml) (PenStrep) (Invitrogen) and 10% fetal bovine serum (Gemini Bio-Products, Sacramento, Calif., USA) at 37° C. and 5% CO2. Normal human epidermal keratinocytes (nHEK) (Thermo Scientific, Waltham, Mass., USA) isolated from neonatal foreskin were cultured in EpiLife medium (Invitrogen) supplemented with human keratinocyte growth supplement (Invitrogen) and 1% PenStrep (Invitrogen). Cells were transfected with control pcDNA or pcDNA3.1-HA-14-3-3ε (Addgene plasmid #48797; http://n2t.net/addgene:48797; RRID:Addgene_48797) using Lipofectamine/Plus reagents (Life Technologies, Carlsbad, Calif., USA) or with siRNA targeting 14-3-3ε (Dharmacon, Lafayette, Colo., USA), 14-3-3γ (Dharmacon), 14-3-3ζ, (Dharmacon), Survivin (Cell Signaling, Danvers, Mass., USA), Akt (Dharmacon) or control siRNA (Santa Cruz Biotechnology, Dallas, Tex., USA) using siQuest transfection reagents (Mirus Bio, Madison, Wis., USA) or treated with Akt inhibitor GSK690693 (Tocris Bioscience, Bristol, United Kingdom) or cell cycle inhibitor 5-Fluorouracil (5-FU) (Thermo Fisher) resuspended in DMSO.
To determine the half maximal inhibitory concentration (IC50) for ES1P2 in SCC12B.2 and nHEK cells, cells were plated in a 96-well plate at a density of 6×10^3 cells/well. Twenty-four hours after plating, cells were treated with increasing concentrations of ES1P2 (0-75 μM) in Opti MEM medium supplemented with reduced serum (Invitrogen) for 4 consecutive days. ES1P2 peptide was resuspended fresh, daily in 25 mM Tris buffer (pH 7.5). Neutral Red Cell Viability assays were performed, where absorbance was measured using a Cytation 5 multi-mode plate reader (BioTek). The experiment was repeated three separate times with 4 replicate wells per experiment to obtain an average IC50 value.
Carcinoma human cell lines (SCC12B.2 and SCC13) were maintained in Dulbecco's modified Eagle's medium (DMEM) (Invitrogen, Carlsbad, Calif., USA) supplemented with 1% penicillin (10 000 U/ml)-streptomycin (10 000 μg/ml) (PenStrep) (Invitrogen) and 10% fetal bovine serum (Gemini Bio-Products, Sacramento, Calif., USA) at 37° C. and 5% CO2. Primary normal human epidermal keratinocytes (nHEK) (Thermo Fisher Scientific, Waltham, Mass., USA) isolated from neonatal foreskin were maintained in EpiLife medium (Invitrogen) supplemented with human keratinocyte growth supplement (HKGS) and 1% PenStrep. nHEK cells were not passaged more than twice before experiments. Cells were treated with CDC25A inhibitor NSC663284 (Tocris Bioscience, Bristol, United Kingdom) suspended in DMSO, transfected with wild type CDC25A or control plasmid using Lipofectamine/Plus transfection reagents (Life Technologies, Carlsbad, Calif., USA) or transfected with siRNA targeting 14-3-3 ε or control siRNA (Santa Cruz Biotechnology, Dallas, Tex., USA) using siQuest transfection reagents (Mirus Bio, Madison, Wis., USA).
To determine the half maximal inhibitory concentration (IC50) for pS and pT in SCC12B.2 cells, cells were plated in a 96-well plate at a density of 6×10^3 cells/well. […] Neutral Red Cell Viability assays were performed, where absorbance was measured using a Cytation 5 multi-mode plate reader (BioTek). […]

For orientation: pIC50 means the IC50 on a negative log10 scale, so that one unit is a factor of ten. With `NCCCC[C@H](NC(=O)[C@H](Cc1c[nH]c2ccccc12)NC(=O)[C@H](Cc1ccc(O)cc1)NC(=O)[C@@H](N)Cc1c[nH]c2ccccc12)C(N)=O` [ES1P2, Trp-Tyr-Trp-Lys-NH2] (H-WYWK-NH2), the pIC50 is 4.69. In addition, the SCC cells alive (20 μM, alone, FIG. 1D) is recorded as 62 % alive.
`CSCC[C@H](NC(=O)[C@H](CCCNC(=N)N)NC(=O)[C@@H]1CCCN1C(=O)[C@H](C)NC(=O)[C@H](COP(=O)(O)O)NC(=O)[C@H](CC(N)=O)NC(=O)[C@H](CCC(N)=O)NC(=O)[C@H](CCCNC(=N)N)NC(=O)[C@H](CCC(N)=O)NC(=O)[C@@H](NC(C)=O)[C@@H](C)O)C(=O)N[C@@H](CC(C)C)C(=O)N[C@@H](CO)C(=O)N[C@@H](CO)C(=O)N[C@@H](CC(N)=O)C(N)=O` [pS, Ac-Thr-Gln-Arg-Gln-Asn-Ser-(PO3^2−)-Ala-Pro-Arg-Met-Leu-Ser-Ser-Asn-NH2] (HELM PEPTIDE1{[ac].T.Q.R.Q.N.[O=C([C@H](COP(=O)(O)O)N[*:1])[*:2]].A.P.R.M.L.S.S.N.[am]}$$$$V2.0): the pIC50 was 4.54.
`CC(=O)N[C@@H](CCCNC(=N)N)C(=O)N[C@H](C(=O)N[C@@H](CCCCN)C(=O)N[C@@H](CO)C(=O)N[C@@H](CCCNC(=N)N)C(=O)N[C@H](C(=O)N[C@@H](Cc1c[nH]c2ccccc12)C(=O)N[C@@H](C)C(=O)NCC(=O)N[C@@H](CCC(=O)O)C(=O)N[C@@H](CCCCN)C(=O)N[C@@H](CO)C(=O)N[C@@H](CCCCN)C(=O)N[C@@H](CCCNC(=N)N)C(N)=O)[C@@H](C)OP(=O)(O)O)[C@@H](C)O` [pT, Ac-Arg-Thr-Lys-Ser-Arg-Thr(PO3^2−)-Trp-Ala-Gly-Glu-Lys-Ser-Lys-Arg-NH2] (HELM PEPTIDE1{[ac].R.T.K.S.R.[C[C@@H](OP(=O)(O)O)[C@H](N[*:1])C(=O)[*:2]].W.A.G.E.K.S.K.R.[am]}$$$$V2.0): the pIC50 (SCC12B.2 cells, Neutral Red, treated 4 consecutive days, 0-75 μM, read-out: IC50 in SCC cells (cell viability dose response)) is 4.66 and 4.65.
